Results on 3 compounds are retold here after article PMC9820167, “Design and Synthesis of Conformationally Flexible Scaffold as Bitopic Ligands for Potent D3-Selective Antagonists” (International Journal of Molecular Sciences, 2022).

By Ki is commonly meant the equilibrium dissociation constant of an inhibitor or competing ligand from its target. Higher therefore signals a looser hold on the target. The inhibition is how much of the control response was suppressed.

Some targets named below: Serotonin 5-HT2A (Homo sapiens, UniProt P28223); Dopamine D3 (Homo sapiens, UniProt P35462); Serotonin 5-HT2B (Homo sapiens, UniProt P41595); Opioid MOR (Homo sapiens, UniProt P35372); Serotonin 5-HT6 (Homo sapiens, UniProt P50406).
What all share (test): PDSP binding screen
A further assay has as its target T1, Adrenergic alpha2C (Homo sapiens, UniProt P18825).
T1 sequence (P18825 1-462): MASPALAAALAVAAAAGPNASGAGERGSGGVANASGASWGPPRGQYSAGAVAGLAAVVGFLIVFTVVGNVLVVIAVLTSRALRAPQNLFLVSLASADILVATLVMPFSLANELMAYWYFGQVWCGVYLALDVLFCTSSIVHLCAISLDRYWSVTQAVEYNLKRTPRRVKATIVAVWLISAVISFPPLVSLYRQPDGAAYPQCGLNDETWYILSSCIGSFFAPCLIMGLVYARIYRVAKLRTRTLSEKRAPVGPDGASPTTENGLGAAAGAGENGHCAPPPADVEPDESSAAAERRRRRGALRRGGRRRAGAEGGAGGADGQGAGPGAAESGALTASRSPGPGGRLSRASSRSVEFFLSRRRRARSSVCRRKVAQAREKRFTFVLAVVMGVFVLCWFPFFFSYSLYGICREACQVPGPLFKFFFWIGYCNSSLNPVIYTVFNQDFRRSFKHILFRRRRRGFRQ

In assay [1] the target is Dopamine active transporter (DAT) (Homo sapiens, UniProt Q01959).
In the next assay the target is Serotonin 5-HT1B (Homo sapiens, UniProt P28222). The settings on record: for inhibition at 10 µM: read-out: Ki (nM) or % inhibition at 10 µM: 5-HT1B.
The target of a further assay is T2, Serotonin 5-HT3 (Homo sapiens, UniProt P46098).
T2 sequence (P46098 24-478): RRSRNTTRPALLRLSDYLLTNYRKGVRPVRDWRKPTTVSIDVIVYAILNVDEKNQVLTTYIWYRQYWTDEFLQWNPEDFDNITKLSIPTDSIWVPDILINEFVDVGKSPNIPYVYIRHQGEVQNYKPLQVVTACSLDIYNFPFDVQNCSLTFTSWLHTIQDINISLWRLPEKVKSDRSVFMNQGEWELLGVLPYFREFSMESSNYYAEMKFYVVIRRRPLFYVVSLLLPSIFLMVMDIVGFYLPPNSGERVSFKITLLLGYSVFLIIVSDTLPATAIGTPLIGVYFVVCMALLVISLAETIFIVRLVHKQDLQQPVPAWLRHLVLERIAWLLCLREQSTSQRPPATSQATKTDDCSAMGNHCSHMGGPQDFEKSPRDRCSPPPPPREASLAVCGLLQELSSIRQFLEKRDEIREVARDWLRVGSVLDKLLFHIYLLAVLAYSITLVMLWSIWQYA

Assay [2] deals with Benzodiazepine receptor (PBR) (Rattus norvegicus, UniProt P16257). The settings on record: for Ki (nM) or % inhibition at 10 µM: Benzodiazepine receptor (PBR): PDSP, HCl salts.
For another assay, the target named is Opioid KOR (Homo sapiens, UniProt P41145). The settings on record: for inhibition at 10 µM: read-out: Ki (nM) or % inhibition at 10 µM: KOR.
A further assay addresses T3, Muscarinic M1 (Homo sapiens, UniProt P11229).
T3 sequence (P11229 1-460): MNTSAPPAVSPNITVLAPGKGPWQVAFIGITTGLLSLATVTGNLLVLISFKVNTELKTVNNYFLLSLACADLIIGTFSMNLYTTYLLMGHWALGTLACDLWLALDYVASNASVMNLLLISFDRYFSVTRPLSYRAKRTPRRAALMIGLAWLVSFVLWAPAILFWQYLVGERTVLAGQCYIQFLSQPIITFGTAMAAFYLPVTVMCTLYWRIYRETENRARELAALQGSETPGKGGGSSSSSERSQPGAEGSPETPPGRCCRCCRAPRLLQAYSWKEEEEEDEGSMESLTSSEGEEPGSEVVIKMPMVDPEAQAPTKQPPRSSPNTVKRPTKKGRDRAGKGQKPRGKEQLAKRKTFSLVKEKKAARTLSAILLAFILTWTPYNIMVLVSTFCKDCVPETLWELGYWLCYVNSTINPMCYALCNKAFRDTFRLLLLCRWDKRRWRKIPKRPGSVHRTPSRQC
The settings on record: for inhibition at 10 µM: read-out: Ki (nM) or % inhibition at 10 µM: M1.

A further assay concerns the target BZP Rat Brain Site. The settings on record: HCl salts.
For another assay, the target named is T4, Adrenergic alpha2A (Homo sapiens, UniProt P08913).
T4 sequence (P08913 1-465): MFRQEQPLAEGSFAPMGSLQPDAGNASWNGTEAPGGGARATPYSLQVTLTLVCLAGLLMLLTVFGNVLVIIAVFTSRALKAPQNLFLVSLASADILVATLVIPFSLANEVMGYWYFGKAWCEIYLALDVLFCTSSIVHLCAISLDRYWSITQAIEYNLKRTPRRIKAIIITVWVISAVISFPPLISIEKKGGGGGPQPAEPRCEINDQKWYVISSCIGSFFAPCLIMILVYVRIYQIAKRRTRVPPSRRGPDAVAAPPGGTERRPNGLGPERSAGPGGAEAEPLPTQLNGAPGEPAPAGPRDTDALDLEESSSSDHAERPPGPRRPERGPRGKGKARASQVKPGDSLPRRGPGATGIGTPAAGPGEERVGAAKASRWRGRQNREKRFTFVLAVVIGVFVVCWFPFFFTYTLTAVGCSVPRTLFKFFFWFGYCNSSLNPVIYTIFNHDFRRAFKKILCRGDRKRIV

Chain of Serotonin 5-HT6 (P50406 whole entry): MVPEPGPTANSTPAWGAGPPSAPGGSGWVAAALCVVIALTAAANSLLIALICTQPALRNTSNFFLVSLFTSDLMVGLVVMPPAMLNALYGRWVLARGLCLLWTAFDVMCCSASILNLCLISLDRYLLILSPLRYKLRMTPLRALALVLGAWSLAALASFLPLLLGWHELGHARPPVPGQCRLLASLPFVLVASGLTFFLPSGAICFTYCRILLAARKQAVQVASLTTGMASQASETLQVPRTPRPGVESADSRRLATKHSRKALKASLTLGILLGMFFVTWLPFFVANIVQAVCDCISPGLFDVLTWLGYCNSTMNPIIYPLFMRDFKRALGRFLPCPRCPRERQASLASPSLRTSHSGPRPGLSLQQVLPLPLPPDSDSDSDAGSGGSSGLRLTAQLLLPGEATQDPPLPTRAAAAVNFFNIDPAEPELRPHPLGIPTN
Chain of Dopamine D3 (P35462 whole entry): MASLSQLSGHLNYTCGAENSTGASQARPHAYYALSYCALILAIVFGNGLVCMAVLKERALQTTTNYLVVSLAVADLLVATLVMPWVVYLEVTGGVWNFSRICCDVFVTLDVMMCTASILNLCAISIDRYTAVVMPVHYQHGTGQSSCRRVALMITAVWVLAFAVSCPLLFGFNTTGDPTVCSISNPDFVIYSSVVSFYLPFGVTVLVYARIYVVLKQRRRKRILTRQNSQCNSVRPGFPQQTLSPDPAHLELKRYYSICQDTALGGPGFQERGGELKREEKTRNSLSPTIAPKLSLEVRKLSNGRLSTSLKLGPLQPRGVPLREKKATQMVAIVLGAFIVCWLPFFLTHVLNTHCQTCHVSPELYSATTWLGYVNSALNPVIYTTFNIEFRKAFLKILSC
Chain of Opioid KOR (P41145 whole entry): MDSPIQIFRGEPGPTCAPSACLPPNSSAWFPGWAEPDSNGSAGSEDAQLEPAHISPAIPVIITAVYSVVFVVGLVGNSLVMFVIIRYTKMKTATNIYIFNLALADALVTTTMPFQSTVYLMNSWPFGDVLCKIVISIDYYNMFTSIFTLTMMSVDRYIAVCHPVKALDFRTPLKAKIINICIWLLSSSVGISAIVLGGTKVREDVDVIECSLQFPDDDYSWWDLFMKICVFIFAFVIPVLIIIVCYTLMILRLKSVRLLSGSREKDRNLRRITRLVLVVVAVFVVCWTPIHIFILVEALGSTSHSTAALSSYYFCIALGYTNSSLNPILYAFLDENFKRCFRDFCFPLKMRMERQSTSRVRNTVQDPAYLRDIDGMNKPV
Chain of Serotonin 5-HT1B (P28222 whole entry): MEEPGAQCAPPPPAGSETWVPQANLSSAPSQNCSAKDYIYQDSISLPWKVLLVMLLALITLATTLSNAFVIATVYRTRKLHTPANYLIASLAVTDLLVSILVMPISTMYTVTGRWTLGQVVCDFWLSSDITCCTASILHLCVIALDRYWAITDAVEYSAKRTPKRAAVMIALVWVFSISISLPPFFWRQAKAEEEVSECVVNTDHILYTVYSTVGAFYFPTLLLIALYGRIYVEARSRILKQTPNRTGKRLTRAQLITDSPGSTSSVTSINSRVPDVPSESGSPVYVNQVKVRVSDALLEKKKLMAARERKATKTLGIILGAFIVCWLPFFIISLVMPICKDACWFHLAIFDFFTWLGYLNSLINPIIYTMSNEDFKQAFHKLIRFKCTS
Chain of Opioid MOR (P35372 whole entry): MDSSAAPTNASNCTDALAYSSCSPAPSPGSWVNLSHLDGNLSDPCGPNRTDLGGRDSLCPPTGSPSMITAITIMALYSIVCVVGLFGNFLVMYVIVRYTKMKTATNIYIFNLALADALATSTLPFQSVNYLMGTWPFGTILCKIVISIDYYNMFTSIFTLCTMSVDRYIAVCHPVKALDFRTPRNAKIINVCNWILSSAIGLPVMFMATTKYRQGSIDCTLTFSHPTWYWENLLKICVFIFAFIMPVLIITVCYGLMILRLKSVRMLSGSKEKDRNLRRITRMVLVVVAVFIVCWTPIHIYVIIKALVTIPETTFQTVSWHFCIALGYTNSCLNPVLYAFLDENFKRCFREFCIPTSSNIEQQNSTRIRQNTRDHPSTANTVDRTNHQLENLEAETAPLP
Chain of Dopamine active transporter (DAT) (Q01959 whole entry, species assumed): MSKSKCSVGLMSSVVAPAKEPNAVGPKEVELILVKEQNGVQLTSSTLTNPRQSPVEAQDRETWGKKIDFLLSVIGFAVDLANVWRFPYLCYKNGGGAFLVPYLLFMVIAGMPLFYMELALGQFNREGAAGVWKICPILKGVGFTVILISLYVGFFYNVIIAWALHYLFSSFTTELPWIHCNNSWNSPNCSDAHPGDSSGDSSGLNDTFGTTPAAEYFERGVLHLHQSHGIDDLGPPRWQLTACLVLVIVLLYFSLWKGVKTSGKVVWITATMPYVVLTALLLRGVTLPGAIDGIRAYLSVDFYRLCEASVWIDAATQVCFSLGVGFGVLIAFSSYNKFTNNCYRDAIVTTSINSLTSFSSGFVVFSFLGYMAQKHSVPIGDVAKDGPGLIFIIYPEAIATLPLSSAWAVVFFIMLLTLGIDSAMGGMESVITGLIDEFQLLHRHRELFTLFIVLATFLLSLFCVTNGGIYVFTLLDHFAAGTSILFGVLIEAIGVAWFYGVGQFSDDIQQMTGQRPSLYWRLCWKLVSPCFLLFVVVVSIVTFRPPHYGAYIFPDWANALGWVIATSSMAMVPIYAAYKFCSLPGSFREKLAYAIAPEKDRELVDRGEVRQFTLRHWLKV
Chain of Serotonin 5-HT2A (P28223 whole entry): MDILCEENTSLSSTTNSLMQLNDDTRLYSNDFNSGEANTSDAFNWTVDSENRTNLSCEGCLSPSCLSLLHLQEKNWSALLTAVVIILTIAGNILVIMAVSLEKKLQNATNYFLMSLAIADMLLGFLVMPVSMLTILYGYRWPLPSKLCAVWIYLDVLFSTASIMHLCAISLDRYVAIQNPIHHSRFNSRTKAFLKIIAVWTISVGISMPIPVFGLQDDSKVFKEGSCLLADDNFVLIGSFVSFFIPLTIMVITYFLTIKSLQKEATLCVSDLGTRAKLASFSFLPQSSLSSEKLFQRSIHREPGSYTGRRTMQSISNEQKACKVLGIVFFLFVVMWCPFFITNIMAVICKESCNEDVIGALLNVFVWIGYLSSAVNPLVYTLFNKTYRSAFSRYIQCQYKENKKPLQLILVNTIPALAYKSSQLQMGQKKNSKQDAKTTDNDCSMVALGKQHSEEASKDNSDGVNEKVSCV
Chain of Serotonin 5-HT2B (P41595 whole entry): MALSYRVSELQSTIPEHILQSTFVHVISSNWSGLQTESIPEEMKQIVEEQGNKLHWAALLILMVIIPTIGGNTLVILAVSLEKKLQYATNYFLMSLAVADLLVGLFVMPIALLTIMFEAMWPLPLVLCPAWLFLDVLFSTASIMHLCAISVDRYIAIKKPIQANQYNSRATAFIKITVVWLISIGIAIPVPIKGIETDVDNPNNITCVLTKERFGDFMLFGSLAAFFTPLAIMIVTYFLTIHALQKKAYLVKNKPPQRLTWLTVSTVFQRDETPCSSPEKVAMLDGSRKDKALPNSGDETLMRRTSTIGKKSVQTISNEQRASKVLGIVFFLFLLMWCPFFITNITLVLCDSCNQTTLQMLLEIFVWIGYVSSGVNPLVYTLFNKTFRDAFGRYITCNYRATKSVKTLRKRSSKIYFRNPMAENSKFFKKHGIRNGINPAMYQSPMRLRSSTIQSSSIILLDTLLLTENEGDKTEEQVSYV

Take `CCN(CCCNC(=O)c1ccc(-c2ccsc2)cc1)CCNC(=O)c1cc(Br)cc(OC)c1OC` [21g, 5-Bromo-N-(2-(ethyl(3-(4-(thiophen-3-yl)benzamido)propyl)amino)ethyl)-2,3-dimethoxybenzamide]: the inhibitory constant (Ki) turned out to be 276 nM on Serotonin 5-HT2A; 78 nM on Adrenergic alpha2C; 100 nM in assay [1]; 1060 nM at Serotonin 5-HT1B; 0.61 nM at Dopamine D3; 195 nM on Serotonin 5-HT3. Besides, the Ki is 189 nM on Serotonin 5-HT2B; 6 nM in assay [2]; 2160 nM at Opioid MOR; 170 nM at Opioid KOR; 3430 nM on Muscarinic M1; 1160 nM at Adrenergic alpha2A. The compound further yielded a Ki at Serotonin 5-HT6 of 363 nM. The “Ki (nM) or % inhibition at 10 µM: Benzodiazepine receptor (PBR)” value in [2] is recorded as “relatively high affinity”. Besides, the “Ki (nM) or % inhibition at 10 µM: BZP Rat Brain Site” value on BZP Rat Brain Site was “N/A (N/A; not active means less than 50% inhibition that was obtained in primary binding assay at 10 µM of the compound)”.

For the compound `CCN(CCCNC(=O)c1ccsc1)CCNC(=O)c1cc(Br)cc(OC)c1OC` [21i, N-(3-((2-(5-Bromo-2,3-dimethoxybenzamido)ethyl)(ethyl)amino)propyl)thiophen-e-3-carboxamide], the Ki on Serotonin 5-HT2A was found to be 1370 nM; on Adrenergic alpha2C it was 1290 nM; in assay [1], 289 nM; at Dopamine D3, 0.28 nM; on Serotonin 5-HT3, 29 nM; on Serotonin 5-HT2B, 269 nM. The Ki on Adrenergic alpha2A was 3340 nM; at Serotonin 5-HT6, 2160 nM. Moreover, the inhibition at 10 µM (on Serotonin 5-HT1B; in assay [2] (read-out: Ki (nM) or % inhibition at 10 µM: Benzodiazepine receptor (PBR)); at Opioid MOR (read-out: Ki (nM) or % inhibition at 10 µM: MOR); at Opioid KOR; at Muscarinic M1) was under 50% in each case. Moreover, in assay [2], the “Ki (nM) or % inhibition at 10 µM: Benzodiazepine receptor (PBR)” value is “relatively high affinity”. Also, the “Ki (nM) or % inhibition at 10 µM: BZP Rat Brain Site” value on BZP Rat Brain Site was “N/A (N/A; not active means less than 50% inhibition that was obtained in primary binding assay at 10 µM of the compound)”.

`CCN(CCCNC(=O)c1cc2ccccc2n1C)CCNC(=O)c1cc(Br)cc(OC)c1OC` [21j, N-(3-((2-(5-Bromo-2,3-dimethoxybenzamido)ethyl)(ethyl)amino)propyl)-1-methyl-1H-indole-2-carboxamide]: the Ki at Serotonin 5-HT2A turned out to be 3140 nM; on Adrenergic alpha2C, 183 nM; in [1], 390 nM; on Dopamine D3, 0.34 nM; at Serotonin 5-HT3, 246 nM; at Serotonin 5-HT2B it was 183 nM. Moreover, the Ki in assay [2] amounted to 8 nM; on Opioid MOR, 2770 nM; at Adrenergic alpha2A, 3110 nM; on Serotonin 5-HT6, 1310 nM. Moreover, the inhibition at 10 µM at Serotonin 5-HT1B, on Opioid KOR and at Muscarinic M1 was under 50% throughout. Further, at BZP Rat Brain Site, the “Ki (nM) or % inhibition at 10 µM: BZP Rat Brain Site” value was “N/A (N/A; not active means less than 50% inhibition that was obtained in primary binding assay at 10 µM of the compound)”.
